# Laboratory results from the kinase profiling compilation of Christmann-Franck et al. (2016).
# Key:
# FER (human) = FER (human) (UniProt P16591); experiment: KINOMEscan competition binding; conditions: compound 10.0 µM
# RPS6KA6 KD2 (human) = RPS6KA6 KD2 (human) (UniProt Q9UK32); experiment: KINOMEscan competition binding; conditions: compound 10.0 µM
# STK33 (human) = STK33 (human) (UniProt Q9BYT3); experiment: KINOMEscan competition binding; conditions: compound 10.0 µM
# TTK (human) [1] = target: TTK (human) (UniProt P33981); experiment: KINOMEscan competition binding; conditions: for kinase still bound, per cent of control: compound 10.0 µM
# Chain of TTK (human) (P33981 whole entry, looked up): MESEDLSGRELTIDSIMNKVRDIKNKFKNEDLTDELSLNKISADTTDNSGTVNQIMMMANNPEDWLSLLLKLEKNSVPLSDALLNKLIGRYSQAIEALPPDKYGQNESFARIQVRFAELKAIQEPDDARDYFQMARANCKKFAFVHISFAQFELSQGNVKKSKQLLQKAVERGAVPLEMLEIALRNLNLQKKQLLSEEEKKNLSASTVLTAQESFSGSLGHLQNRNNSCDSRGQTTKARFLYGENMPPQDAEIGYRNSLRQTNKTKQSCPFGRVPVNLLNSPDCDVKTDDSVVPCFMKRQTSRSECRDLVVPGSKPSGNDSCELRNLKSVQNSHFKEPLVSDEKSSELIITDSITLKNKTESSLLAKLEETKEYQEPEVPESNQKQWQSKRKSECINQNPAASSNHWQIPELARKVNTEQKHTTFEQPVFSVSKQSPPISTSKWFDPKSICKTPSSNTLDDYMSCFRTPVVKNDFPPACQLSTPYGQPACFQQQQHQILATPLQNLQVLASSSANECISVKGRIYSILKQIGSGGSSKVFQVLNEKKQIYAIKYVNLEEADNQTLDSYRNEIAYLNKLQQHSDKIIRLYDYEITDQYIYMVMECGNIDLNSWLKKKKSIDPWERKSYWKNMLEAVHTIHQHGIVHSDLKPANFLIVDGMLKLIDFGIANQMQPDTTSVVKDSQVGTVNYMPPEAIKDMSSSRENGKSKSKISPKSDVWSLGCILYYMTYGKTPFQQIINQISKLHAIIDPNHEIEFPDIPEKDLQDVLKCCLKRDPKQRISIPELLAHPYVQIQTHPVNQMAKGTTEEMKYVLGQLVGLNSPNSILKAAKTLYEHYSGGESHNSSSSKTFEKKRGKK
# CAMK1D (human) = CAMK1D (human) (UniProt Q8IU85); experiment: KINOMEscan competition binding; conditions: compound 10.0 µM
# DCLK1 (human) = DCLK1 (human) (UniProt O15075); experiment: KINOMEscan competition binding; conditions: compound 10.0 µM
# PLK4 (human) = PLK4 (human) (UniProt O00444); experiment: KINOMEscan competition binding; conditions: compound 10.0 µM
# Chain of PLK4 (human) (O00444 whole entry, looked up): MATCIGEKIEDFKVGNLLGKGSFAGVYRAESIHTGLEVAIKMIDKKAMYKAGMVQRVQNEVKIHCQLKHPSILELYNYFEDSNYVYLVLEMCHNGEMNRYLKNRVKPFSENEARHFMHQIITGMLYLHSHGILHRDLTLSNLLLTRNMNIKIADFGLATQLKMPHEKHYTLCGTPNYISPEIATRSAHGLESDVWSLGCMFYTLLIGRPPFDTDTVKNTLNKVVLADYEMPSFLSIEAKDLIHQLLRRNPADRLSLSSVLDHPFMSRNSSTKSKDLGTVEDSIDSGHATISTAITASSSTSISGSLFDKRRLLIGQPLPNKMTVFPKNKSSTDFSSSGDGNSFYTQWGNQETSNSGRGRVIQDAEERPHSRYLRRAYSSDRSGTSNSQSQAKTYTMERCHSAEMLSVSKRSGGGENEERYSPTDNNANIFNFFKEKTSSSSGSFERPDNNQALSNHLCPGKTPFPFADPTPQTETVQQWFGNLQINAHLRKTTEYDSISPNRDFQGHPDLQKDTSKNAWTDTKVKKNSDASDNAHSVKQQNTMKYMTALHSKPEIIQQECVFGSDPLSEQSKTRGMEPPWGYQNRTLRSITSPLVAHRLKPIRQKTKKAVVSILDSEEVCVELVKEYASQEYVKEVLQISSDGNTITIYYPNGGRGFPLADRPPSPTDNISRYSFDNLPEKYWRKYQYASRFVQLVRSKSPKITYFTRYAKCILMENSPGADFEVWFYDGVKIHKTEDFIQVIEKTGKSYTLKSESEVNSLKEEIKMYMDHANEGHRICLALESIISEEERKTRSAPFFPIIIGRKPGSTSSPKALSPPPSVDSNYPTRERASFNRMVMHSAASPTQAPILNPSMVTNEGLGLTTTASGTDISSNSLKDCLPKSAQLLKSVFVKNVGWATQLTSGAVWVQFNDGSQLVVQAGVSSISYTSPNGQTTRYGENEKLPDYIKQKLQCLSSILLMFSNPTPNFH
# CLK1 (human) = CLK1 (human) (UniProt P49759); experiment: KINOMEscan competition binding; conditions: compound 10.0 µM
# SLK (human) = SLK (human) (UniProt Q9H2G2); experiment: KINOMEscan competition binding; conditions: compound 10.0 µM
# RPS6KA2 KD2 (human) = RPS6KA2 KD2 (human) (UniProt Q15349); experiment: KINOMEscan competition binding; conditions: compound 10.0 µM
# CLK2 (human) = CLK2 (human) (UniProt P49760); experiment: KINOMEscan competition binding; conditions: compound 10.0 µM
# Chain of CLK2 (human) (P49760 whole entry, looked up): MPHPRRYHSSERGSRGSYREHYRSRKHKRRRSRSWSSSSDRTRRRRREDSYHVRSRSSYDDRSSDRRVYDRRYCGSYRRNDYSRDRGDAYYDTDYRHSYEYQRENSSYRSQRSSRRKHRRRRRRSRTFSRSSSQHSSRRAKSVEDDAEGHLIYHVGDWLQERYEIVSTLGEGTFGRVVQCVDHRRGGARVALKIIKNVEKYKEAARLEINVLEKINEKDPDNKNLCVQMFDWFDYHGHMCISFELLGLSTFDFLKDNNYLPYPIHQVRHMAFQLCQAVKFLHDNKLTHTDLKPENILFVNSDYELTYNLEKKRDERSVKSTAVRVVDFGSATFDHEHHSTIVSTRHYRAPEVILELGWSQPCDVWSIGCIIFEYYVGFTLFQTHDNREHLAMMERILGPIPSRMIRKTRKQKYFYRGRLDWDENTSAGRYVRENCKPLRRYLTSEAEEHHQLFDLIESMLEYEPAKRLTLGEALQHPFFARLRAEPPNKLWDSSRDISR
# ALK (human) = ALK (human) (UniProt Q9UM73); experiment: KINOMEscan competition binding; conditions: compound 10.0 µM
# PLK3 (human) = PLK3 (human) (UniProt Q9H4B4); experiment: KINOMEscan competition binding; conditions: compound 10.0 µM
# DCLK2 (human) = DCLK2 (human) (UniProt Q8N568); experiment: KINOMEscan competition binding; conditions: compound 10.0 µM
# IGF1R (human) = IGF1R (human) (UniProt P08069); experiment: KINOMEscan competition binding; conditions: compound 10.0 µM
# RPS6KA1 KD2 (human) = RPS6KA1 KD2 (human) (UniProt Q15418); experiment: KINOMEscan competition binding; conditions: compound 10.0 µM
# Chain of RPS6KA1 KD2 (human) (Q15418 whole entry, looked up): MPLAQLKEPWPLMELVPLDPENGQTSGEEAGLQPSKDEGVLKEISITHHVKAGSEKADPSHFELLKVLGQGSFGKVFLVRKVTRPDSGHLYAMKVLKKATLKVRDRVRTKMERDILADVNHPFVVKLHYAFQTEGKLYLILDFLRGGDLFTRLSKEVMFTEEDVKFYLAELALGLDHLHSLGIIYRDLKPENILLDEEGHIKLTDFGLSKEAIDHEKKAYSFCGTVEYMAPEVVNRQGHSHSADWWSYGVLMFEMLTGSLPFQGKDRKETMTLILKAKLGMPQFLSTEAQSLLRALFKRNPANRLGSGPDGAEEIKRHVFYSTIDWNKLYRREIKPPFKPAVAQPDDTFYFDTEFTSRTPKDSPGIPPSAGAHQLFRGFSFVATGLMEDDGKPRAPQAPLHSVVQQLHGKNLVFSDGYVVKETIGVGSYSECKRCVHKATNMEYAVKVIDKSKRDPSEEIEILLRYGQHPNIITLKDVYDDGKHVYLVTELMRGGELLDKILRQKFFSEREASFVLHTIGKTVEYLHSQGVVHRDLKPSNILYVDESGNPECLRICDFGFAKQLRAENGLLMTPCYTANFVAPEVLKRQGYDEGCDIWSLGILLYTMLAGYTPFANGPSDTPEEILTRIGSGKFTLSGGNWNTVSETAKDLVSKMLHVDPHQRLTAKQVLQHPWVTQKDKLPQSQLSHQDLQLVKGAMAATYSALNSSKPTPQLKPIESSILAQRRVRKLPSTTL
# INSR (human) = INSR (human) (UniProt P06213); experiment: KINOMEscan competition binding; conditions: compound 10.0 µM
# PTK2 (human) = PTK2 (human) (UniProt Q05397); experiment: KINOMEscan competition binding; conditions: compound 10.0 µM
# PRKD1 (human) = PRKD1 (human) (UniProt Q15139); experiment: KINOMEscan competition binding; conditions: compound 10.0 µM
# DAPK2 (human) = DAPK2 (human) (UniProt Q9UIK4); experiment: KINOMEscan competition binding; conditions: compound 10.0 µM
# GAK (human) = GAK (human) (UniProt O14976); experiment: KINOMEscan competition binding; conditions: compound 10.0 µM
# PRKD3 (human) = PRKD3 (human) (UniProt O94806); experiment: KINOMEscan competition binding; conditions: compound 10.0 µM
# CAMK2A (human) = CAMK2A (human) (UniProt Q9UQM7); experiment: KINOMEscan competition binding; conditions: compound 10.0 µM
# INSRR (human) = INSRR (human) (UniProt P14616); experiment: KINOMEscan competition binding; conditions: compound 10.0 µM
# MYLK (human) = MYLK (human) (UniProt Q15746); experiment: KINOMEscan competition binding; conditions: compound 10.0 µM
# TNK1 (human) = TNK1 (human) (UniProt Q13470); experiment: KINOMEscan competition binding; conditions: compound 10.0 µM
# PTK2B (human) = PTK2B (human) (UniProt Q14289); experiment: KINOMEscan competition binding; conditions: compound 10.0 µM
# Chain of PTK2B (human) (Q14289 whole entry, looked up): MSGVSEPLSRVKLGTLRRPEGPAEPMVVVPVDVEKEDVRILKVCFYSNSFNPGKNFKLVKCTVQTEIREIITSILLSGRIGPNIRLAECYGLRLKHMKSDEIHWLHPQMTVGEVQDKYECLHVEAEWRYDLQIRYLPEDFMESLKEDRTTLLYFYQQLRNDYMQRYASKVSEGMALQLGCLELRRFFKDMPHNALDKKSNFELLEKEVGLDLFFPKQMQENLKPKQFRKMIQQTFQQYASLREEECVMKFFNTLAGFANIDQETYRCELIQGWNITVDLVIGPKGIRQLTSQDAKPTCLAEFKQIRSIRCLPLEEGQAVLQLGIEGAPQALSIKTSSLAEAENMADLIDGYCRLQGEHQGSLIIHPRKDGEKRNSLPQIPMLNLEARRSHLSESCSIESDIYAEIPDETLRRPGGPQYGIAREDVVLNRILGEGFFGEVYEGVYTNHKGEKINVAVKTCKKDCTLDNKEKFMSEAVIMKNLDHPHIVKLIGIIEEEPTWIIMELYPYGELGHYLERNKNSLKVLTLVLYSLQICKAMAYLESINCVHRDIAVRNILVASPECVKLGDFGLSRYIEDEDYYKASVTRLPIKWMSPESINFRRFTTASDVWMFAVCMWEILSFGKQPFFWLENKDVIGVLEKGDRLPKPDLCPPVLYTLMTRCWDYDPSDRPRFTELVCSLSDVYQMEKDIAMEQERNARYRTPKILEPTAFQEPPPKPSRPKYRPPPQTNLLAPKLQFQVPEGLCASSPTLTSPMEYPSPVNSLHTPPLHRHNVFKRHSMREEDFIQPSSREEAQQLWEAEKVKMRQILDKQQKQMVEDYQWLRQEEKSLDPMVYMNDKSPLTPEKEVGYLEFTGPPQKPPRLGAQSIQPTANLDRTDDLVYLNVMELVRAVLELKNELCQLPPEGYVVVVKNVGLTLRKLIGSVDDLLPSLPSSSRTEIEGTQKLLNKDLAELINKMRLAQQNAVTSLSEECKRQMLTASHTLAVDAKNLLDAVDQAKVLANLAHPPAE
# DAPK1 (human) = DAPK1 (human) (UniProt P53355); experiment: KINOMEscan competition binding; conditions: compound 10.0 µM
# DAPK3 (human) = DAPK3 (human) (UniProt O43293); experiment: KINOMEscan competition binding; conditions: compound 10.0 µM
# TTK (human) [2] = target: TTK (human) (UniProt P33981); experiment: SelectScreen, TR FRET
# MAPK9 (human) = MAPK9 (human) (UniProt P45984); experiment: KINOMEscan competition binding; conditions: compound 10.0 µM
# CSK (human) = CSK (human) (UniProt P41240); experiment: KINOMEscan competition binding; conditions: compound 10.0 µM
# MYLK4 (human) = MYLK4 (human) (UniProt Q86YV6); experiment: KINOMEscan competition binding; conditions: compound 10.0 µM
# MAPK12 (human) = MAPK12 (human) (UniProt P53778); experiment: KINOMEscan competition binding; conditions: compound 10.0 µM
# CDK16 (human) = CDK16 (human) (UniProt Q00536); experiment: KINOMEscan competition binding; conditions: compound 10.0 µM
# MAPK15 (human) = MAPK15 (human) (UniProt Q8TD08); experiment: KINOMEscan competition binding; conditions: compound 10.0 µM
# MAPK8 (human) = MAPK8 (human) (UniProt P45983); experiment: KINOMEscan competition binding; conditions: compound 10.0 µM
# HIPK1 (human) = HIPK1 (human) (UniProt Q86Z02); experiment: KINOMEscan competition binding; conditions: compound 10.0 µM
# MAPK10 (human) = MAPK10 (human) (UniProt P53779); experiment: KINOMEscan competition binding; conditions: compound 10.0 µM
# CDK7 (human) = CDK7 (human) (UniProt P50613); experiment: KINOMEscan competition binding; conditions: compound 10.0 µM
# PIM3 (human) = PIM3 (human) (UniProt Q86V86); experiment: KINOMEscan competition binding; conditions: compound 10.0 µM
# PIM2 (human) [3] = target: PIM2 (human) (UniProt Q9P1W9); experiment: KINOMEscan competition binding; conditions: compound 10.0 µM
# PIM1 (human) [4] = target: PIM1 (human) (UniProt P11309); experiment: KINOMEscan competition binding; conditions: compound 10.0 µM
# Chain of PIM1 (human) (P11309 whole entry, looked up): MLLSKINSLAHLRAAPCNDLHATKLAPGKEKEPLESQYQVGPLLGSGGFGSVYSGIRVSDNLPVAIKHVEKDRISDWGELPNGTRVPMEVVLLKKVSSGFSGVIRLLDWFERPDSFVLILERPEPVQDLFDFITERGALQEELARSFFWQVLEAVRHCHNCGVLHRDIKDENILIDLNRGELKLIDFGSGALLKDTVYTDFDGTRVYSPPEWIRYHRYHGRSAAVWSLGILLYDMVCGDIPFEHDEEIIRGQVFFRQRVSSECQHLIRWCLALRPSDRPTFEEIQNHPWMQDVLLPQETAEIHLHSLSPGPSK
# MAP2K3 (human) = MAP2K3 (human) (UniProt P46734); experiment: KINOMEscan competition binding; conditions: compound 10.0 µM
# TAOK1 (human) = TAOK1 (human) (UniProt Q7L7X3); experiment: KINOMEscan competition binding; conditions: compound 10.0 µM
# TLK2 (human) = TLK2 (human) (UniProt Q86UE8); experiment: KINOMEscan competition binding; conditions: compound 10.0 µM
# MAPK14 (human) = MAPK14 (human) (UniProt Q16539); experiment: KINOMEscan competition binding; conditions: compound 10.0 µM
# PIM2 (human) [5] = target: PIM2 (human) (UniProt Q9P1W9); experiment: SelectScreen, TR FRET
# PIM1 (human) [6] = target: PIM1 (human) (UniProt P11309); experiment: SelectScreen, TR FRET
# PLK1 (human) = PLK1 (human) (UniProt P53350); experiment: KINOMEscan competition binding; conditions: compound 10.0 µM
# Chain of STK33 (human) (Q9BYT3 whole entry, looked up): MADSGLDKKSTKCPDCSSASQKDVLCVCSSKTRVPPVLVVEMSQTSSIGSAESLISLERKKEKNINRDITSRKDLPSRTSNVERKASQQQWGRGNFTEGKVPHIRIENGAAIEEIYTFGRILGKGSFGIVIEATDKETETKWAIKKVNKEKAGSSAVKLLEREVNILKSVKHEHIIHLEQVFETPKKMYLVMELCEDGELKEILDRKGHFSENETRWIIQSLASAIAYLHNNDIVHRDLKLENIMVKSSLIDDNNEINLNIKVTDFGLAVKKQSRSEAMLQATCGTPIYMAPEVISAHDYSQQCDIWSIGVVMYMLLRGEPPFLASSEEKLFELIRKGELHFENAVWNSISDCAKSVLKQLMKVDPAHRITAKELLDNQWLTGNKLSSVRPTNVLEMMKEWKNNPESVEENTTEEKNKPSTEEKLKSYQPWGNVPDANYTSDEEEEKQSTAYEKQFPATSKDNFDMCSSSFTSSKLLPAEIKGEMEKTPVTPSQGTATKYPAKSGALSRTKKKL
SMILES,"kinase still bound, per cent of control (RPS6KA6 KD2 (human)) [%]","kinase still bound, per cent of control (STK33 (human)) [%]","kinase still bound, per cent of control (TTK (human) [1]) [%]","kinase still bound, per cent of control (DCLK1 (human)) [%]","kinase still bound, per cent of control (PLK4 (human)) [%]","kinase still bound, per cent of control (SLK (human)) [%]","kinase still bound, per cent of control (RPS6KA2 KD2 (human)) [%]","kinase still bound, per cent of control (CLK2 (human)) [%]","kinase still bound, per cent of control (ALK (human)) [%]","kinase still bound, per cent of control (PLK3 (human)) [%]","kinase still bound, per cent of control (DCLK2 (human)) [%]","kinase still bound, per cent of control (RPS6KA1 KD2 (human)) [%]","kinase still bound, per cent of control (INSR (human)) [%]","kinase still bound, per cent of control (PTK2 (human)) [%]","kinase still bound, per cent of control (DAPK2 (human)) [%]","kinase still bound, per cent of control (GAK (human)) [%]","kinase still bound, per cent of control (INSRR (human)) [%]","kinase still bound, per cent of control (MYLK (human)) [%]","kinase still bound, per cent of control (PTK2B (human)) [%]","kinase still bound, per cent of control (DAPK1 (human)) [%]",also measured
COc1cc(C(=O)NC2CCN(C)CC2)ccc1Nc1ncc2c(n1)N(C1CCCC1)CCC(=O)N2C,14,5.2,5.2,6.1,11,12,14,21,16,0,8.6,25,32,2.6,12,4.2,19,2.2,26,4,"kinase still bound, per cent of control (FER (human)): 33%; Kd (TTK (human) [1]): 0.576 µM; kinase still bound, per cent of control (CAMK1D (human)): 29%; kinase still bound, per cent of control (CLK1 (human)): 27%; kinase still bound, per cent of control (IGF1R (human)): 20%; kinase still bound, per cent of control (PRKD1 (human)): 28%; kinase still bound, per cent of control (PRKD3 (human)): 32%; kinase still bound, per cent of control (CAMK2A (human)): 21%; kinase still bound, per cent of control (TNK1 (human)): 28%; kinase still bound, per cent of control (DAPK3 (human)): 11%; IC50 (TTK (human) [2]): 2.28 µM"
CN(C)C1=NC(=O)/C(=C/c2ccc(-c3ccc(S(N)(=O)=O)cc3)o2)S1,–,–,9,–,0.7,–,–,33,–,–,–,31,–,–,–,–,–,–,–,–,"kinase still bound, per cent of control (MAPK9 (human)): 8.1%; kinase still bound, per cent of control (CSK (human)): 31%; kinase still bound, per cent of control (MYLK4 (human)): 24%; kinase still bound, per cent of control (MAPK12 (human)): 33%; kinase still bound, per cent of control (CDK16 (human)): 0.45%; kinase still bound, per cent of control (MAPK15 (human)): 19%; kinase still bound, per cent of control (MAPK8 (human)): 33%; kinase still bound, per cent of control (HIPK1 (human)): 4.3%; kinase still bound, per cent of control (MAPK10 (human)): 22%; kinase still bound, per cent of control (CDK7 (human)): 22%; kinase still bound, per cent of control (PIM3 (human)): 2.9%; kinase still bound, per cent of control (PIM2 (human) [3]): 3.4%; kinase still bound, per cent of control (PIM1 (human) [4]): 3.5%; kinase still bound, per cent of control (MAP2K3 (human)): 16%; kinase still bound, per cent of control (TAOK1 (human)): 9.2%; kinase still bound, per cent of control (TLK2 (human)): 33%; kinase still bound, per cent of control (MAPK14 (human)): 21%; IC50 (PIM2 (human) [5]): 6.45 µM; IC50 (PIM1 (human) [6]): 1.89 µM"
COc1cc(C(=O)NC2CCN(C)CC2)ccc1Nc1ncc2c(n1)N(C1CCC(O)CC1)CCC(=O)N2C (stereo not given),22,5.6,0.85,11,8,20,9.6,–,14,4.1,31,15,30,7.1,24,2.7,23,3,12,8.2,"kinase still bound, per cent of control (PLK1 (human)): 2%; kinase still bound, per cent of control (DAPK3 (human)): 9.9%"
